Test results from ChEMBL document CHEMBL4138305, “HTS by NMR for the Identification of Potent and Selective Inhibitors of Metalloenzymes” (ACS Med Chem Lett, 2018).
Calls of active or inactive are those of the source. The calls are words filed in the database; no cut-off is given here. Square brackets hold non-standard residues; d marks the D form. Peptide text beside a SMILES is read from it. * marks the point of attachment. d(hPhe) = N[C@H](CCc1ccccc1)C(=O)O; Bn = c1ccc(C*)cc1; NHOH = ON*

How the values were obtained:
[1] = biological target: T1, Macrophage metalloelastase (Homo sapiens, UniProt P39900); assay: Inhibition of recombinant human MMP12 catalytic domain (Gly106 to […] residues) expressed in Escherichia coli BL21 codon plus using Mca-Pro-Leu-Gly-Leu-Dpa-Ala-Arg-NH2 as substrate by fluorescence assay
Target sequence in this assay (P39900 whole entry, the tested form may be a part): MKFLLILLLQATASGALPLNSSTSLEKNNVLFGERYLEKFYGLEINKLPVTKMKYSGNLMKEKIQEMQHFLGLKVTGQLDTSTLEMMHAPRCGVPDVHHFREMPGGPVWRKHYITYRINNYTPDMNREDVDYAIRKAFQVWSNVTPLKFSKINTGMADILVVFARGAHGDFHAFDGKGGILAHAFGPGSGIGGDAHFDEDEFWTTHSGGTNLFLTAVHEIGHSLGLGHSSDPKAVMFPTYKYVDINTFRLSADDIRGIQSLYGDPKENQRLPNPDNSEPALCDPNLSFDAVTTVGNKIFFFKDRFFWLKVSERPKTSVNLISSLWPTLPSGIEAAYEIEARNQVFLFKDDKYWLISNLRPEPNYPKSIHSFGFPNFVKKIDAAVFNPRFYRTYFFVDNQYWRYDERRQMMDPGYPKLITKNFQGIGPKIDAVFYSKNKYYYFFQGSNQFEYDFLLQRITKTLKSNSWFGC

[2] = biological target: Matrix metalloproteinase-9 (Homo sapiens) (UniProt P14780); assay: Inhibition of MMP9 (unknown origin) at 1 uM
Matrix metalloproteinase-9 (Homo sapiens), sequence (P14780 whole entry, the tested form may be a part): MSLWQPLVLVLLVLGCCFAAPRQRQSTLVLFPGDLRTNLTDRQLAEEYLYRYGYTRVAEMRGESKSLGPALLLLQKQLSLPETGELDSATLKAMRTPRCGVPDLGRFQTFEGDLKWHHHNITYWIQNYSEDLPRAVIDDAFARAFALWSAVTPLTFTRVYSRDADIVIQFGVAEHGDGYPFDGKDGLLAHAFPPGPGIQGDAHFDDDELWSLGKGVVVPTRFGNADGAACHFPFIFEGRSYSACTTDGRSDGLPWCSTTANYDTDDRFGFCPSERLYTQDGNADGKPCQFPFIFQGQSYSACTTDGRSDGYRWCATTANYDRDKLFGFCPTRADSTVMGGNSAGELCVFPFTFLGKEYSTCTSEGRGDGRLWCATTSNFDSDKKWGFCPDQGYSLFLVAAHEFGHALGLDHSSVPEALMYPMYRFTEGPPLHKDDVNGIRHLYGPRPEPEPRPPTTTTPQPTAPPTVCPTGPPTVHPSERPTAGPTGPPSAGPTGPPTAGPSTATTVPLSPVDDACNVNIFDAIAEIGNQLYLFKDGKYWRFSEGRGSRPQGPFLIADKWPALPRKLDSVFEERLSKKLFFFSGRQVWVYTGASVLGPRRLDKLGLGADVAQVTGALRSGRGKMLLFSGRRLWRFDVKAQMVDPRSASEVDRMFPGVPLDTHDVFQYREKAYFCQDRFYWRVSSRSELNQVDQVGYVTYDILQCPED

[3] = biological target: T1, Macrophage metalloelastase; assay: Binding affinity to recombinant human MMP12 catalytic domain (Gly106 to […] residues) expressed in Escherichia coli BL21 codon plus by 2D [15N,1H] HMQC spectra analysis
Target sequence in this assay (P39900 whole entry, the tested form may be a part): as the sequence (P39900 whole entry, the tested form may be a part) above

[4] = biological target: T1, Macrophage metalloelastase; assay: Binding affinity to recombinant human MMP12 catalytic domain (Gly106 to […] residues) expressed in Escherichia coli BL21 codon plus by 1D 1H aliphatic NMR spectra analysis
Target sequence in this assay (P39900 whole entry, the tested form may be a part): as above

[5] = biological target: Stromelysin-1 (Homo sapiens) (UniProt P08254); assay: Inhibition of recombinant human C-terminal DYKDDDDK tagged MMP3 expressed in mammalian expression system at 1 uM relative to control
Stromelysin-1 (Homo sapiens), sequence (P08254 100-477 limits assumed): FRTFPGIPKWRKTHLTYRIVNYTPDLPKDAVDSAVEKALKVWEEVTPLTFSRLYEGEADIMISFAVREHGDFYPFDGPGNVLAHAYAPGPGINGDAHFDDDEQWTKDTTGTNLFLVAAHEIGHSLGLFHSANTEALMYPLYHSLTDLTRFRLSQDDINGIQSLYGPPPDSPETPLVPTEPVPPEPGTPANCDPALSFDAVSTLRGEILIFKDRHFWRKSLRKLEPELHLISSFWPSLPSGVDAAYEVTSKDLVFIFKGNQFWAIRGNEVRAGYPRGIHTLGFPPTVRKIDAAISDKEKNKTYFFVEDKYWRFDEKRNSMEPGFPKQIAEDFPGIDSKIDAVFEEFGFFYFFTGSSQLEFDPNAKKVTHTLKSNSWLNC

[6] = biological target: Stromelysin-1 (Homo sapiens) (UniProt P08254); assay: Inhibition of recombinant human C-terminal DYKDDDDK tagged MMP3 expressed in mammalian expression system at 55 nM relative to control
[7] = biological target: Matrix metalloproteinase-14 (Homo sapiens) (UniProt P50281); assay: Inhibition of MMP14 (unknown origin) at 1 uM
[8] = biological target: T2, Interstitial collagenase (Homo sapiens) (UniProt P03956); assay: Inhibition of MMP1 (unknown origin) at 1 uM
T2 sequence (whole entry): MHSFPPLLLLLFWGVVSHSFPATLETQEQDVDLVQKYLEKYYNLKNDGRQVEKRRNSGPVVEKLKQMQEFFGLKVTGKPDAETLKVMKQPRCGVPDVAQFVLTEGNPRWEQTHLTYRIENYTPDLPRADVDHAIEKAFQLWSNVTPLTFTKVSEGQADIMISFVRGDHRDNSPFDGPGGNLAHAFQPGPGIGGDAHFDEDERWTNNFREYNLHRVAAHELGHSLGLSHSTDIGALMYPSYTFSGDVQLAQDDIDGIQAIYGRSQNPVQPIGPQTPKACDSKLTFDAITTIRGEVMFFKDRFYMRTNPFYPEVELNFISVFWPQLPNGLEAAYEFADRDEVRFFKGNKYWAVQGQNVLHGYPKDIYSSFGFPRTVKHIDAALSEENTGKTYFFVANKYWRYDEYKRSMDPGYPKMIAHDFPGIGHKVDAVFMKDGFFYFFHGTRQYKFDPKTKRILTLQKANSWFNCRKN

[9] = biological target: T1, Macrophage metalloelastase; assay: Inhibition of recombinant human C-terminal DYKDDDDK tagged MMP12 expressed in mammalian expression system at 55 to 100 nM
Target sequence in this assay (P39900 106-470 limits assumed): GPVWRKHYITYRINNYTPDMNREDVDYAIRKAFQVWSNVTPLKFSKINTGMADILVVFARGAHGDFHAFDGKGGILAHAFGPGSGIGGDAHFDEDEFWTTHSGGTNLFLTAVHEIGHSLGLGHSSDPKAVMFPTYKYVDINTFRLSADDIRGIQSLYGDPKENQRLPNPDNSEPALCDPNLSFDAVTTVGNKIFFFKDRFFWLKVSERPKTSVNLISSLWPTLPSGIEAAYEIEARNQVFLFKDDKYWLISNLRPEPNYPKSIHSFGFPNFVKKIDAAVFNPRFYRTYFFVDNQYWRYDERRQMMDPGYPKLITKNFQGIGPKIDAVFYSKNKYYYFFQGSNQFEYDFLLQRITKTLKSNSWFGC

[10] = biological target: T1, Macrophage metalloelastase; conditions: 1 uM
Target sequence in this assay (P39900 106-470 limits assumed): as above

With `CC(=O)N[C@@H](COCc1ccccc1)C(=O)N[C@H](CCc1ccccc1)C(=O)N[C@H](Cc1ccccc1)C(=O)NO` (Ac-Ser(Bn)-[d(hPhe)]-[dF]-{NHOH}) the IC50 [1] was 54.7 nM, the inhibition [2] was “Active” and the Kd [3] was under 50 nM. It also gave a Kd [4] of under 50 nM, an inhibition [5] of 78% and an inhibition [6] of 19%. For the same compound, the inhibition [7] was “Active”, the inhibition [8] was “Active” and the inhibition [9] was “Active”.

With `CNC(=O)[C@H](Cc1c[nH]c2ccccc12)NC(=O)[C@@H](CC(=O)NO)CC(C)C` [ILOMASTAT] the IC50 [1] was 5.2 nM, the inhibition [2] was “Active” and the inhibition [10] was “Active”. For the same compound, the inhibition [5] was “Active”, the inhibition [7] was “Active” and the inhibition [8] was “Active”.
